Measured values as given in the NIST ThermoML archive (doi:10.1021/je900442b).

Legend:
[1] = 101 kPa, Liquid
[2] = xn = mol fraction of the nth substance listed; conditions: 101 kPa, Liquid

CCCCOC(C)=O [butyl ethanoate]
[1]
Conditions	mass density [kg/m3]	speed of sound [m/s]
298.15 K	876.18	1190
303.15 K	871.27	1173
308.15 K	865.41	1150
313.15 K	860.46	1131

CC(=O)OC(C)(C)C [1,1-dimethylethyl ethanoate]
[1]
Conditions	mass density [kg/m3]	speed of sound [m/s]
298.15 K	859.75	1091
303.15 K	853.94	1078
308.15 K	848.34	1049
313.15 K	842.67	1040

CCCCOC(C)=O [butyl ethanoate] + CO
[2]
Conditions	mass density, 298.15 K [kg/m3]	mass density, 303.15 K [kg/m3]	mass density, 308.15 K [kg/m3]	mass density, 313.15 K [kg/m3]	speed of sound, 298.15 K [m/s]	speed of sound, 303.15 K [m/s]	speed of sound, 308.15 K [m/s]	speed of sound, 313.15 K [m/s]
x1 = 0.1004	810.58	805.75	800.39	795.84	1130	1112	1092	1076
x1 = 0.2329	831.49	826.61	821.09	816.38	1151	1132	1111	1093
x1 = 0.2996	839.18	834.29	828.66	823.89	1160	1140	1118	1100
x1 = 0.4008	848.46	843.52	837.84	833.02	1171	1151	1128	1109
x1 = 0.498	855.46	850.52	844.77	839.91	1179	1159	1136	1116
x1 = 0.5988	861.3	856.34	850.55	845.66	1185	1165	1141	1122
x1 = 0.6994	866.05	861.1	855.28	850.36	1189	1170	1145	1126
x1 = 0.7912	869.71	864.74	858.91	853.98	1191	1172	1148	1128
x1 = 0.8992	873.3	868.38	862.52	857.58	1191	1173	1149	1130
x1 = 1	876.18	871.27	865.41	860.46	1190	1173	1150	1131

CO [methanol] + CCCCOC(C)=O
[2], x2 = 0
Conditions	mass density [kg/m3]	speed of sound [m/s]
298.15 K	786.38	1109
303.15 K	781.65	1092
308.15 K	776.52	1074
313.15 K	772.15	1060
